{"source": "patent US20050214279A1", "about": "“Methods for stimulating human leukocytes to kill bacteria, yeast and fungi in biofilms that have formed in/on prosthetic devices, catheters, tissues and organs in vivo” (priority 2003, published 2005)", "tested_on": "human neutrophils", "assay": "Neutrophil phagocytosis and killing of S. epidermidis in fibrin gels", "format": "cell-based", "settings": "bacteria 10^5 to 2×10^8 CFU/ml, neutrophils 10^6 to 4×10^8/ml (data not shown)", "procedure": "To facilitate processing for microscopy we used 50% autologous plasma to form gels (40 μl in volume). To increase the frequency of neutrophils and S. epidermidis interactions the gels contained 4μ 10^8 neutrophils/ml (pre-incubated in medium with or without 20 μM cytochalasin D for 15 min at room temperature), 2μ 10^8 CFU/ml S. epidermidis, and 20 μM cytochalasin D, where indicated. The gels were incubated for 60 min at 37° C., fixed with 2.5% glutaraldehyde at 4° C., and then with 1% OsO4, stained en block with 1% uranyl acetate, dehydrated, and embedded in Epon. Sections ˜[…] thick were cut, stained sequentially with lead citrate and uranyl acetate, and examined in a Phillips 1200 transmission electron microscope. […]\nIn stirred suspensions, neutrophils must phagocytose bacteria to kill them. […] Second, cytochalasin D, which facilitates neutrophil secretions, blocked both phagocytosis (as measured by electron microscopy), and killing of S. epidermidis in fibrin gels at all bacterial (10^5 to 2×10^8 CFU/ml) and neutrophil concentrations (10^6 to 4×10^8/ml) tested (data not shown). […]"}
{"smiles": "C=C1[C@@H](C)[C@H]2[C@H](Cc3ccccc3)NC(=O)[C@]23[C@H](OC(C)=O)/C=C/[C@@](C)(O)C(=O)[C@@H](C)C/C=C/[C@H]3[C@@H]1O", "note": "[cytochalasin D]", "values": [{"measurement": "killing of S. epidermidis in fibrin gels", "value": "blocked"}, {"measurement": "phagocytosis (as measured by electron microscopy)", "value": "blocked"}]}
